18 compounds from patent US5220018A, “Cholecystokinin antagonists” (Merck & Co., Inc., priority 1992, dated 1993) can be followed below.

Assay [1] deals with T1, CCK Receptor (Brain) (Cavia porcellus, UniProt H0VZC5).
T1 construct: the cortex was removed and homogenized in 25 mL ice-cold 0.32M sucrose; from tissue; host or cells: guinea pig cerebral cortex, P2 membrane pellet
T1 sequence (H0VZC5 1-426): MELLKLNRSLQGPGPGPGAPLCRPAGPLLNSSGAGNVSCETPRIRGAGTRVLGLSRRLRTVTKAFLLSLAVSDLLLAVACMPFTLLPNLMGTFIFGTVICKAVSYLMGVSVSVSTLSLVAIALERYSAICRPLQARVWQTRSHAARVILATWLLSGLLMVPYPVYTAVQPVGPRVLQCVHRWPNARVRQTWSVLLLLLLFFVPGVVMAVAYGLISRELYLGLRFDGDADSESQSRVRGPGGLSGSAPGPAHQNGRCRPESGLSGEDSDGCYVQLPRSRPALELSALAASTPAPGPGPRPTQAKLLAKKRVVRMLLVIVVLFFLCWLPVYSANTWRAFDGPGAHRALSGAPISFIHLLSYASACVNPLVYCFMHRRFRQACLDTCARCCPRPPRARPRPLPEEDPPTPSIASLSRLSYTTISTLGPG
The assay is described as follows: CCK Receptor Binding (Brain), inhibition of 125I-CCK-8 binding. Also noted: species or system Male Hartley guinea pigs. As to the method: 2. CCK Receptor Binding (Brain)
CCK-8 sulphated was radiolabelled and the binding was performed according to the description for the pancreas method with minor modifications.
Male Hartley guinea pigs (300-500 g) were sacrificed by decapitation and the cortex was removed and homogenized in 25 mL ice-cold 0.32M sucrose. The homogenates were centrifuged at 1000 g for 10 minutes and the resulting supernatant was recentrifuged at 20,000 g for 20 minutes. […] All assays were run in duplicate. The reaction mixtures were incubated at 25° C. for 2 hours and then the reaction was terminated on Whatman GF/C filters by rapid filtration (Brandell 24 well cell Harvester) with 3×5 ml washes of cold 100 mM NaCl. The radioactivity on the filters was then counted with a LKB gamma counter.
(§1) Drug displacement studies were performed with at least 10 concentrations of compounds of formula 1 and the IC50 values were determined by regression analysis.

For assay [2], the target named is T2, CCK Receptor (Pancreas) (Rattus norvegicus, UniProt P30551).
T2 construct: The whole pancreas was dissected free of fat tissue and was homogenized; from tissue; host or cells: rat whole pancreas, homogenate membranes
T2 sequence (P30551 1-444): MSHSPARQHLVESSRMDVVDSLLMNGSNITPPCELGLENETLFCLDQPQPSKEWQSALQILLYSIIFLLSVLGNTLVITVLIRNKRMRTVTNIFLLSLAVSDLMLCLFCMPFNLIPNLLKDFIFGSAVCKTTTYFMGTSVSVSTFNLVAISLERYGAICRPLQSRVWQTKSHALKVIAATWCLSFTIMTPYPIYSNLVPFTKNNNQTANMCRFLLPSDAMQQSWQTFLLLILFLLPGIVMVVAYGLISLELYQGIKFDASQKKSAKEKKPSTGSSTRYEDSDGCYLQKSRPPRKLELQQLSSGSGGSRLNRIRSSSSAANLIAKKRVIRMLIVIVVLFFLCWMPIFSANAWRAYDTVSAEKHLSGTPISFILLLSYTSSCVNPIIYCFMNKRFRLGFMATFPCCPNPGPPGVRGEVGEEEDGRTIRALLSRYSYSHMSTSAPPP
Kind of assay: biochemical. It is filed as binding, Male Sprague-Dawley rats. As to the method: 1. CCK Receptor Binding (Pancreas)
CCK-8 sulphated was radiolabelled with ^125 I-Bolton Hunter reagent (2000 Ci/mmole). Receptor binding was performed according to Chang and Lotti (Proc. Natl. Acad. Sci. 83, 4923-4926, 1986) with minor modifications.
Male Sprague-Dawley rats (150-200 g) were sacrificed by decapitation. The whole pancreas was dissected free of fat tissue and was homogenized in 25 volumes of ice-cold 10 mM Hepes buffer with 0.1% soya bean trypsin inhibitor (pH 7.4 at 25° C.) with a Kinematica Polytron. The homogenates were centrifuged at 47,800 g for 10 min. Pellets were resuspended in 10 volumes of binding assay buffer (20 mM Hepes, 1 mM EGTA, 5 mM MgCl2, 150 mM NaCl, bacitracin 0.25 mg/ml, soya bean trypsin inhibitor 0.1 mg/ml, and bovine serum albumin 2 mg/ml, pH 6.5 at 25° C.) using a teflon homogenizer, 15 strokes at 500 rpm. The homogenate was further diluted in binding assay buffer to give a final concentration of 0.5 mg original wet weight/1 ml buffer. […] All assays were run in duplicate. The reaction mixtures were incubated at 25° C. for 2 hours and the reaction terminated by rapid filtration (Brandell 24 well cell harvester) over Whatman GF/C filters, washing 3×4 mls with ice-cold 100 mM NaCl. The radioactivity on the filters was counted with a LKB gamma counter.
as §1

Where [3] appears, read: guinea pig cortex membranes, 125I-CCK-8 50 pM, 25° C., 2 hours, read-out: IC50, 125I-CCK Brain.
Where [4] appears, read: rat pancreas membranes, 125I-CCK-8 50 pM, 25° C., 2 hours, read-out: IC50, 125I-CCK Pancreas.

The structures appear in SMILES notation. Where two headings read alike, the source gives them in different places.

`CN1C(=O)[C@H](NC(=O)Nc2cccc(S(N)(=O)=O)c2)N=C(c2ccccc2)c2ccccc21` [Example 14, N-{1,3-Dihydro-1-methyl-2-oxo-5-phenyl-1H-1,4-benzodiazepin-3-yl}-N'-{[3-(aminosulfonyl)phenyl]urea}]: the IC50 in assay [1] (setting [3]) amounted to 74 nM; in assay [2] (setting [4]), 4400 nM.

For the compound `CN1C(=O)[C@H](NC(=O)Nc2cccc(B(O)O)c2)N=C(c2ccccc2)c2ccccc21` [Example 15, N-{1,3-Dihydro-1-methyl-2-oxo-5-phenyl-1H-1,4-benzodiazepin-3-yl}-N'-{[3-phenylboronyl]urea}], the half-maximal inhibitory concentration (IC50) in assay [1] (setting [3]) was 9.6 nM; in assay [2] (setting [4]) it was 420 nM.

For `CC(=O)NS(=O)(=O)c1cccc(NC(=O)N[C@@H]2N=C(c3ccccc3)c3ccccc3N(C)C2=O)c1` [Example 16, N-{1,3-Dihydro-1-methyl-2-oxo-5-phenyl-1H-1,4-benzodiazepin-3-yl}-N'-{[3-(acetylaminosulfonyl)phenyl]urea}], the results for the IC50 in assay [1] (setting [3]) and in assay [2] (setting [4]) were 3.9 nM and above 3000 nM, respectively.

As to `CN1C(=O)[C@H](NC(=O)Nc2cccc(Cc3nnn[nH]3)c2)N=C(c2ccccc2)c2ccccc21` [Example 17, N-{1,3-Dihydro-1-methyl-2-oxo-5-phenyl-1H-1,4-benzodiazepin-3-yl}-N'-{[3-((1H-tetrazol-5-yl)methyl)phenyl]urea}], the figures for the IC50 in assay [1] (setting [3]) and in assay [2] (setting [4]) were 4.8 nM and 1800 nM, respectively.

Consider `CCCN1C(=O)[C@H](NC(=O)Nc2cccc(-c3nnn[nH]3)c2)N=C(c2ccccc2)c2ccccc21` [Example 18, N-{1,3-Dihydro-1-n-propyl-2-oxo-5-phenyl-1H-1,4-benzodiazepin-3-yl}-N'-{[3-(1H-tetrazol-5-yl)phenyl]urea}], for which the IC50 in assay [1] (setting [3]) was determined as 0.067 nM; in assay [2] (setting [4]), 1100 nM.

In the case of `CC[C@H](C)CN1C(=O)[C@H](NC(=O)Nc2cccc(-c3nnn[nH]3)c2)N=C(c2ccccc2)c2ccccc21` [Example 19, N-{1,3-Dihydro-1-[2-(S)-methylbutyl]-2-oxo-5-phenyl-1H-1,4-benzodiazepin-3-yl}-N'-{[3-(1H-tetrazol-5-yl)phenyl]urea}], the IC50 was 0.25 nM in assay [1] (setting [3]) and 500 nM in assay [2] (setting [4]).

For `O=C(Nc1cccc(-c2nnn[nH]2)c1)N[C@@H]1N=C(c2ccccc2)c2ccccc2N(CC2CC2)C1=O` [Example 20, N-{1,3-Dihydro-1-cyclopropylmethyl-2-oxo-5-phenyl-1H-1,4-benzodiazepin-3-yl}-N'-{[3-(1H-tetrazol-5-yl)phenyl]urea}], the IC50 in assay [1] (setting [3]) amounted to 0.4 nM; in assay [2] (setting [4]) it was 870000 nM.

For the compound `CC(=O)NC(=O)c1cccc(NC(=O)N[C@@H]2N=C(c3ccccc3)c3ccccc3N(C)C2=O)c1` [Example 22, N-{1,3-Dihydro-1-methyl-2-oxo-5-phenyl-1H-1,4-benzodiazepin-3-yl}-N'-{[3-(N-acetylcarboxamido)phenyl]urea}], the IC50 in assay [1] (setting [3]) turned out to be 55 nM; in assay [2] (setting [4]) it was 3800 nM.

With `CN1C(=O)[C@H](NC(=O)Nc2cccc(C(=O)NS(C)(=O)=O)c2)N=C(c2ccccc2)c2ccccc21` [Example 23, N-{1,3-Dihydro-1-methyl-2-oxo-5-phenyl-1H-1,4-benzodiazepin-3-yl}-N'-{[3-(N-(methanesulfonyl)carboxamido)phenyl]urea}], the half-inhibitory concentration (IC50) was 12 nM in assay [1] (setting [3]) and 1500 nM in assay [2].

On to `CC(C)S(=O)(=O)NC(=O)c1cccc(NC(=O)N[C@@H]2N=C(c3ccccc3)c3ccccc3N(C)C2=O)c1` [Example 24, N-{1,3-Dihydro-1-methyl-2-oxo-5-phenyl-1H-1,4-benzodiazepin-3-yl}-N'-{[3-(N-(2-propylsulfonyl)carboxamido)phenyl]urea}], for which the IC50 is 7.6 nM in assay [1] (setting [3]) and 2400 nM in assay [2] (setting [4]).

Take `CN1C(=O)[C@H](NC(=O)Nc2cccc(C(=O)NS(=O)(=O)C(C)(C)C)c2)N=C(c2ccccc2)c2ccccc21` [Example 25, N-{1,3-Dihydro-1-methyl-2-oxo-5-phenyl-1H-1,4-benzodiazepin-3-yl}-N'-{[3-(N-(t-butylsulfonyl)carboxamido)phenyl]urea}]: the results for the IC50 in assay [1] (setting [3]) and in assay [2] (setting [4]) were 0.38 nM and above 3000 nM, respectively.

As for `CC(C)NC(=O)NC(=O)c1cccc(NC(=O)N[C@@H]2N=C(c3ccccc3)c3ccccc3N(C)C2=O)c1` [Example 26, N-{1,3-Dihydro-1-methyl-2-oxo-5-phenyl-1H-1,4-benzodiazepin-3-yl}-N'-{[3-(N-(2-propylaminocarbonyl)carboxamido)phenyl]urea}], the concentration for half-maximal inhibition (IC50) was 410 nM in assay [1] (setting [3]) and above 3000 nM in assay [2] (setting [4]).

With `CC(=O)NS(=O)(=O)c1cccc(NC(=O)N[C@@H]2N=C(c3ccccc3)c3ccccc3N(CC3CC3)C2=O)c1` [Example 27, N-{1,3-Dihydro-1-cyclopropylmethyl-2-oxo-5-phenyl-1H-1,4-benzodiazepin-3-yl}-N'-{[3-(N-(acetyl)sulfonamido)phenyl]urea}], the results for the IC50 in assay [1] (setting [3]) and in assay [2] (setting [4]) were 0.55 nM and 4600 nM, respectively.

For `CN1C(=O)[C@H](NC(=O)Nc2cccc(S(=O)(=O)NC(=O)C(C)(C)C)c2)N=C(c2ccccc2)c2ccccc21` [Example 28, N-{1,3-Dihydro-1-methyl-2-oxo-5-phenyl-1H-1,4-benzodiazepin-3-yl}-N'-{[3-(N-(1,1-dimethylethylcarbonyl)sulfonamido)phenyl]urea}], the IC50 in assay [1] (setting [3]) was 12 nM; in assay [2] (setting [4]), above 3000 nM.

For `CN1C(=O)[C@H](NC(=O)Nc2cccc(S(=O)(=O)NC(=O)C3CC3(C)C)c2)N=C(c2ccccc2)c2ccccc21` (stereo partly drawn) [Example 29, N-{1,3-Dihydro-1-methyl-2-oxo-5-phenyl-1H-1,4-benzodiazepin-3-yl}-N'-{[3-(N-(2,2-dimethylcyclopropylcarbonyl)sulfonamido)phenyl]urea}], the IC50 was 11 nM in assay [1] (setting [3]) and above 3000 nM in assay [2] (setting [4]).

For the compound `CN1C(=O)[C@H](NC(=O)Nc2cccc(S(=O)(=O)NC(=O)NC(C)(C)C)c2)N=C(c2ccccc2)c2ccccc21` [Example 30, N-{1,3-Dihydro-1-methyl-2-oxo-5-phenyl-1H-1,4-benzodiazepin-3-yl}-N'-{[3-(N-(t-butylaminocarbonyl)sulfonamido)phenyl]urea}], the IC50 in assay [1] (setting [3]) is 14 nM; in assay [2] (setting [4]), above 3000 nM.

On to `CN1C(=O)[C@H](NC(=O)Nc2cccc(S(=O)(=O)NP(=O)(Oc3ccccc3)Oc3ccccc3)c2)N=C(c2ccccc2)c2ccccc21` [Example 31, N-{1,3-Dihydro-1-methyl-2-oxo-5-phenyl-1H-1,4-benzodiazepin-3-yl}-N'-{[3-(N-(diphenylphosphono)sulfonamido)phenyl]urea}], for which the IC50 in assay [1] was 15 nM; in assay [2], above 3000 nM.

On to `CN1C(=O)[C@H](NC(=O)Nc2cccc(/C=C/C(=O)O)c2)N=C(c2ccccc2)c2ccccc21` [Example 32, N-{1,3-Dihydro-1-methyl-2-oxo-5-phenyl-1H-1,4-benzodiazepin-3-yl}-N'-{[3-(trans-carboxyethylene)phenyl]urea}], for which the IC50 stood at 8.9 nM in assay [1] (setting [3]) and 12 nM in assay [2] (setting [4]).

For orientation: IC50 means the point on the concentration scale where inhibition reaches its midpoint.
